Key:
[1] = system: irinotecan-induced CID in dogs; experiment: Dog model of chemotherapy-induced diarrhea; type: in vivo; conditions: FIG. 19
Source text: The objective of this study was to determine the efficacy of representative macrocyclic compounds of the present invention in chemotherapy-induced diarrhea (CID) following intravenous administration to the male beagle dog (Canis familiaris) for up to 32 days. Comparison with existing agents utilized for this condition, octreotide and loperamide, was an additional objective.
Twenty-one (21) male naïve Beagle dogs were randomly assigned to 7 groups and treated as follows:
The test compounds, controls and comparators were prepared at appropriate intervals. All formulations intended for administration to the test animals were stored refrigerated at 2-8° C. Irinotecan was obtained as a sterile solution for intravenous injection containing irinotecan hydrochloride trihydrate at a concentration of 20 mg/mL, ready to use. The irinotecan formulation for dosing the animals (0.5 mg/mL) in Group 1 (Cycles 1 and 2 only) was achieved by dilution of 20 mg/mL formulation with 5% dextrose for injection, USP. […]
A total of 21 males and 2 spare males were obtained from a commercial supplier (for example Marshall BioResources, North Rose, N.Y.) with ages 5 to 7 months old at onset of treatment and weights 6-9 kg at onset of treatment. […] Temperature and relative humidity were monitored continuously and recorded 4 times daily. […]

[2] = system: isolated colonic segments from the shrew; experiment: Contractile activity of isolated muscle strips of the shrew
Source text: J. Evaluation of Contractile Activity of Isolated Muscle Strips from the Stomach, Duodenum and Colon of the Shrew.
Motilin (threshold concentration of 10^−8 M) enhances contractions induced by electrical field stimulation (4 Hz) by a post-ganglionic interaction with the cholinergic neurotransmission. At higher concentrations, motilin causes a tonic contraction interacting directly with the antral smooth muscle. Analogously, the effects of motilin and [Nle^13]-motilin (Calbiochem), as selective agonists of the motilin receptor, on smooth muscle strips isolated from the gastric antrum, the circular muscle of the duodenum and the colon of the shrew were investigated. Immunohistochemical studies have shown that endocrine cells in the GI tract of the musk shrew express motilin (Kanamori, Y.; Nakazawa, S.; Kitoh, J.; Hoshino, M. The distribution of endocrine cells in the mucosa of the gastrointestinal tract of the house musk shrew, Suncus murinus (Insectivora). Cell. Tissue Res. 1989, 258, 365-71; Kitamura, N.; Yamada, J.; Watanabe, T.; Yamashita, T. An immunohistochemical study on the distribution of endocrine cells in the gastrointestinal tract of the musk shrew, Suncus murinus. Histol Histopathol. 1990, 5, 83-88.) Shrews were fasted for 8-10 h, euthanized with CO2 inhalation, and the stomach, the duodenum and colon isolated immediately and placed in Krebs buffer aerated with 95% O2 and 5% CO2. Specifically, mucosa-free circular muscle strips were isolated from the antral region, the duodenum and the colon using a dissecting microscope. Isometric contractions were recorded in organ baths following equilibration at optimal tension using the PowerLab data acquisition system. […]
To define the effect of test compounds on different regions of the GI tract of the shrew (gastric antrum, […] and colon) and to evaluate the antagonist affinity of test compounds in this model system, the ability of varying concentrations of test compound to antagonize the motilin or [Nle^13]-motilin-induced contractions was measured in organ baths as described above. […]

CCC[C@@H]1NC(=O)[C@@H](C(C)C)NC(=O)[C@@H](Cc2ccc(O)c(Cl)c2)N[C@@H](C)COc2ccccc2CCCNC1=O [Compound 552] was tested. Which “efficacy in the treatment of irinotecan-induced CID” value ([1]; intravenous infusion, versus the current standard of care (octreotide, loperamide)) did it give?
Its value is “superior efficacy”.

What about the “onset and duration of action in irinotecan-induced CID” value ([1]; versus the current standard of care) of the same molecule?
Its value is “quicker onset and longer duration of action”.

And the “effect on contractile response to 0.3 μM [Nle^13]-motilin” value ([2]; 0.01 μM-10 μM, FIG. 18)?
Its value is “dose-dependent inhibition”.

And the “effect on contractile response to 0.3 μM motilin” value ([2]; 0.01 μM-10 μM, FIG. 18)?
The value was “dose-dependent inhibition”.

And the “change in basal contractile activity” value ([2]; data not shown)?
Its value is “did not cause a significant change”.
